The values below come from patent publication US20260165990A1, “Treatment of Tartaric Acid Toxicity in Dogs with Probenecid” (priority 2022, published 2026).

One data set deals with HK-2 cells. Briefly: LDH release cytotoxicity of tartaric acid in HK-2 cells. The format is cell-based, human. The source says: (§1) Absorbance was read at 450 nm.
Data set [1] deals with MDCK cells. As to the kind of experiment: Probenecid prevention of tartaric acid induced LDH release in MDCK cells. The protocol:
When conducting experiments with probenecid (Sigma Aldrich, St. Louis, MO), a stock solution of 2 mmol/L in complete media was made at pH 7.4, then mixed with either complete media or 100 mmol/L tartaric acid to yield both solutions of 1 mmol/L and 500 μmol/L and solutions of 1 mmol/L probenecid+50 mmol/L potassium bitartrate, as well as 500 μmol/L+50 mmol/L potassium bitartrate. MDCK cells were treated and allowed to incubate for 72 hours.
as §1
As TTA is a common, dietary dicarboxylic acid, it is believed to be renally excreted via organic anion-handling transporters. Therefore, to assess the role of OAT-mediated TTA transport, MDCK cells were exposed to 50 mM tartaric acid alone or in combination with 1 mM or 0.5 mM probenecid; a known OAT-1 inhibitor.

The subject of data set [2] is MDCK cells. As to the kind of experiment: ATP depletion in MDCK cells (CellTiter Glo assay). In kind it is cell-based, canine. The protocol:
TTA concentration groups were compared to media alone (Neg.) using one-way ANOVA followed by a Dunnett's post-hoc test. (n=3/group). * p<0.05; ** p<0.005; *** p<0.001; **** p<0.0001.
500 μM probenecid (PBD) protected MDCK cells from 25 mM and 50 mM TTA-induced ATP depletion at 12 & 72 h, assessed using a CellTiter Glo® assay. Groups were compared using one-way ANOVA followed by a Tukey's post-hoc test. (n=3); ***p<0.001, **** p<0.0001 compared to media; $p<0.05 compared to 25 or 50 mM TTA alone.
ATP depletion was determined in MDCK cells as another measure of cytotoxicity of TTA. The results shown in FIG. 3 indicate that ATP depletion was both time-and dose-dependent. In FIG. 4, it can be observed that dose-response curves were obtained for TTA-induced ATP depletion, and the cells became more sensitive at each increasing dose, and with increasing time of exposure to TTA. This established the MDCK cell culture model as a valid predictor of TTA-induced renal pathology in canine kidney in vitro.
A general note: ATP-based viability assays read luminescence as a measure of living cells.

For data set [3], the system named is MDCK cells transfected with human OAT-4. As to the kind of experiment: LDH release in hOAT-4 transfected MDCK cells. The settings on record: 50 mM TTA, 72 h. In kind it is cell-based, canine. As for the experimental part: In order to assess the role that OAT transporters may play in tartaric acid induced nephrotoxicity, MDCK cells were transfected with human OAT-4 and treated with 50 mmol/L of potassium bitartrate. Human (h)OAT-4 cDNA (GenScript, Piscataway, NJ) was purchased and transformed using E. coli (New England Biolabs, Ipswich, MA) to produce higher amounts of cDNA to be used in transfection. E. coli was transformed per New England Biolab's protocol. Briefly, E. coli was thawed, plasmid cDNA was added, and then mixed with manufacturer's SOC solution. The mixture was allowed to incubate at 37° C. for 60 minutes, and was then spread on LB agar ampicillin-100 plates (Sigma Aldrich, St. Louis, MO) and allowed to incubate for 24 hours at 37° C. Colonies were then collected, placed into a solution of LB […] ampicillin-100 broth, and incubated overnight.
Human OAT-4 plasmid preparation with the amplified E. coli was completed using the PureYield Plasmid Miniprep System (Promega, Madison, WI) following manufacturers protocol. Briefly, 4 mL of culture was collected and centrifuged. The supernatant was removed, and the cell pellet was resuspended in 600 μL 1xPBS. […] The concentration of the elucidated cDNA was then measured using a NanoDrop spectrophotometer (yielding cDNA ranging from 264.8 to 762.8 ng/uL). […]
as §1
For orientation: LDH leaks from cells whose membrane has failed.

Data set [4] has as its system MDCK cells.
Procedure: MDCK cells were maintained in EMEM media supplemented with 10% Fetal Bovine Serum and 1% streptomycin. […] Both cell lines were incubated at 37° C. and 5% CO2 until confluency.
For experiments, both cell lines were incubated in triplicate with an endpoint of 72 hours. Treatment concentrations were made using a stock solution of 100 mmol/L potassium bitartrate in complete media. Final treatment concentrations of 5, 10, 25, 50, 75, and 100 mmol/L were reached via serial dilution. To mimic physiological pH of 7.4, 10N NaOH and 10M HCl were used. A positive control of 0.005% hydrogen peroxide was also used.
Release of lactate dehydrogenase (LDH) from the cytosol in response to plasma membrane damage is a common measure of necrotic cell death and was measured utilizing the LDH-Cytotoxicity assay kit according to the manufacturer's protocol (BioVision, Milpitas, CA). Briefly, media from treated MDCK or HK-2 cells was removed and samples placed into a 96 well plate in duplicate. A mixture of WST kit reagent and buffer in a 25:1 ratio was then added to each well. The plate was covered and allowed to incubate at room temperature for 30 minutes. Absorbance was read at 450 nm. To normalize for potential cell confluency differences, cells were solubilized with 0.05% Triton-X, and cellular protein was analyzed using the bicinchoninic acid (BCA) method.
The subject of a further data set is canines. As to conditions: grape ingestion, tartaric acid equivalent; cited from earlier work.
Another data set deals with dogs. The settings on record: cited from earlier work.
In a further data set the test system is renal tubular excretion. As to conditions: canines, effect plateaus at this dose; cited from earlier work.

Read-outs that look alike come from different tables or passages of the source.

Regarding `O=C(O)C(O)C(O)C(=O)O` (stereo not drawn) [TTA, tartaric acid], the LDH release result is reported as “no statistically significant increase in LDH release” with HK-2 cells (HK-2 cells, 72 h, pH 7.4, 5-100 mmol/L, vs negative control); 4.302 with MDCK cells [1] (50 mM TTA alone, 72 h (probenecid experiment)); 1.213 in data set [3]; 1.769 with MDCK cells [4] (MDCK cells, 10 mM, 72 h, pH 7.4); 1.472 with MDCK cells [4] (MDCK cells, 25 mM, 72 h, pH 7.4); 1.646 in the data set with MDCK cells [4] (MDCK cells, 50 mM, 72 h, pH 7.4). Moreover, the LDH release amounted to 2.540 in the data set with MDCK cells [4] (MDCK cells, 75 mM, 72 h, pH 7.4); 1.778 in the data set with MDCK cells [4] (MDCK cells, 100 mM, 72 h, pH 7.4); 2.807 in the data set on MDCK cells [4] (non-transfected MDCK cells, 50 mM TTA, 72 h (transfection experiment)). Further, the “TTA-induced LDH release, HK-2 vs. MDCK cells” value in the data set with HK-2 cells (same exposure concentrations across species, two-way ANOVA) is “no significant difference”. For the same compound, the ATP depletion entry with MDCK cells [2] (function of time and dose of TTA exposure) is “induced significant ATP depletion”. Further, the “lowest concentration with significant increase in TTA-induced cytotoxicity” value in the data set on MDCK cells [4] (MDCK cells, 72 h of exposure, vs controls) is 10 mmol/L. In the data set on canines, the “ingested dose (as tartaric acid) resulting in significant nephrotoxicity” value is 196 to 1484 mg/kg.

As a reminder, the LD50 is the dose expected to kill half of the subjects tested. With `CCCN(CCC)S(=O)(=O)c1ccc(C(=O)O)cc1` [probenecid, 4-(dipropylsulfamoyl)benzoic acid], the “prevention of TTA-induced cytotoxicity” value in the data set on MDCK cells [1] (500 μM and 1 mM probenecid) is “completely prevented”. Also, the LDH release in the data set with MDCK cells [1] (0.5 mM probenecid + 50 mM TTA, 72 h) is 1.658; with MDCK cells [1] (1 mM probenecid + 50 mM TTA, 72 h), 1.518. Also, the “cell death by probenecid alone” value in the data set with MDCK cells [1] (probenecid alone at 0.5 mM or 1 mM, 72 h) is “did not induce significant cell death”. Further, in the data set on MDCK cells [2] (500 μM probenecid, 25 mM and 50 mM TTA, 12 & 72 h), the “protection from TTA-induced ATP depletion” value is given as “protected”. Also, in the data set on dogs (IV), the 50% lethal dose (LD50) was 270 mg/kg. In addition, in the data set on dogs, the therapeutic index result was “high”. In the data set with renal tubular excretion, the “oral dose enough to completely suppress renal tubular excretion” value is 6 mg/kg.
